Common to all, as to type: in vivo
Common to all, as to conditions: Rate 1000 g/ha; sprayed after 8 days cultivation; evaluated after 13 days; scores from 10 to 0 (10=total damage to plant; 0=no damage to plant)

The subject of one assay is ECHCG. The assay is described as follows: Example B1 herbicidal action post-emergence, ECHCG. Here is the method: (§1) Seeds of a variety of test species were sown in standard soil in pots. After 8 days cultivation (post-emergence) under controlled conditions in a glasshouse (at 24/16° C., day/night; 14 hours light; 65% humidity), the plants were sprayed with an aqueous spray solution derived from the formulation of the technical active ingredient in acetone/water (50:50) solution containing 0.5% Tween 20 (polyoxyethelyene sorbitan monolaurate, CAS RN 9005-64-5). The test plants were then grown under controlled conditions in a glasshouse (at 24/16° C., day/night; 14 hours light; 65% humidity) and watered twice daily. After 13 days, the test was evaluated and the assessed scores, from 10 to 0, are tabulated in Table B1 (10=total damage to plant; 0=no damage to plant).

In another assay the test system is IPOHE. Description: Example B1 herbicidal action post-emergence, IPOHE. How it is done:
as §1

Another assay deals with SOLNI. Description: Example B1 herbicidal action post-emergence, SOLNI. Here is the method: as §1
The subject of the next assay is SETFA. The assay is described as follows: Example B1 herbicidal action post-emergence, SETFA. How it is done:
as §1

Another assay concerns AMARE. The assay is described as follows: Example B1 herbicidal action post-emergence, AMARE. Here is the method: as §1

The results in this text go back to US8569301B2, “6, 6-dioxo-6-thia-1, 4-diaza-naphthalenes as herbicides” (Syngenta Limited, priority 2009, dated 2013).

The structures appear in SMILES notation.

As for `O=S1(=O)Cc2nccnc2C(O)=C1c1ccc(F)cc1Cl` [Compound C8], the “assessed score, application post-emergence, ECHCG” value (“assessed score … ECHCG” for short) in the assay on ECHCG was found to be 3. Further, the “assessed score, application post-emergence, IPOHE” value (“assessed score … IPOHE” for short) with IPOHE was determined as 1. Also, the “assessed score, application post-emergence, SOLNI” value (“assessed score … SOLNI” for short) with SOLNI turned out to be 7. The “assessed score, application post-emergence, SETFA” value (“assessed score … SETFA” for short) with SETFA is 5. For the same molecule, the “assessed score, application post-emergence, AMARE” value (“assessed score … AMARE” for short) with AMARE was 5.

As for `O=S1(=O)Cc2nccnc2C(O)=C1c1ccccc1OC(F)F` [Compound C9], the “assessed score … ECHCG” value in the assay with ECHCG was 3. Further, the “assessed score … IPOHE” value in the assay on IPOHE was found to be 1. Further, the “assessed score … SOLNI” value with SOLNI is given as 4. Also, the “assessed score … SETFA” value in the assay with SETFA was 7. The “assessed score … AMARE” value with AMARE turned out to be 6.

As to `O=S1(=O)Cc2nccnc2C(O)=C1c1cccc(F)c1C(F)(F)F` [Compound C10], the “assessed score … ECHCG” value in the assay on ECHCG worked out at 5. In addition, in the assay on IPOHE, the “assessed score … IPOHE” value is 6. For the same molecule, in the assay on SOLNI, the “assessed score … SOLNI” value is 8. In addition, the “assessed score … SETFA” value in the assay with SETFA came to 6. For the same molecule, in the assay on AMARE, the “assessed score … AMARE” value is given as 6.

With `O=S1(=O)Cc2nccnc2C(O)=C1c1ccccc1C(F)(F)F` [Compound C11], the “assessed score … ECHCG” value in the assay on ECHCG stood at 5. In the assay on IPOHE, the “assessed score … IPOHE” value was 5. Moreover, the “assessed score … SOLNI” value with SOLNI was 7. In the assay with SETFA, the “assessed score … SETFA” value stood at 7. Moreover, the “assessed score … AMARE” value in the assay on AMARE is 7.

As for `O=S1(=O)Cc2nccnc2C(O)=C1c1c(F)ccc(F)c1Cl` [Compound C12], in the assay on ECHCG, the “assessed score … ECHCG” value worked out at 3. Moreover, in the assay with IPOHE, the “assessed score … IPOHE” value was determined as 6. In the assay with SOLNI, the “assessed score … SOLNI” value came out at 8. The “assessed score … SETFA” value with SETFA came to 6. The “assessed score … AMARE” value in the assay on AMARE came out at 8.

In the case of `O=S1(=O)Cc2nccnc2C(O)=C1c1c(Cl)cccc1C(F)(F)F` [Compound C13], the “assessed score … ECHCG” value in the assay with ECHCG was 8. Further, the “assessed score … IPOHE” value in the assay on IPOHE is 8. Also, the “assessed score … SOLNI” value with SOLNI is listed as 2. For the same molecule, the “assessed score … SETFA” value in the assay on SETFA is 8. Also, in the assay on AMARE, the “assessed score … AMARE” value is reported as 8.

Consider `O=S1(=O)Cc2nccnc2C(O)=C1c1ccccc1I` [Compound C14], for which the “assessed score … ECHCG” value in the assay on ECHCG is on record as 7. For the same molecule, the “assessed score … IPOHE” value in the assay with IPOHE is 8. The “assessed score … SOLNI” value with SOLNI was 7. Also, the “assessed score … SETFA” value in the assay on SETFA worked out at 7. In addition, the “assessed score … AMARE” value in the assay with AMARE is reported as 8.

As to `O=S1(=O)Cc2nccnc2C(O)=C1c1cc(F)ccc1Cl` [Compound C15], the “assessed score … ECHCG” value in the assay on ECHCG is reported as 5. Moreover, the “assessed score … IPOHE” value in the assay on IPOHE is 3. Besides, the “assessed score … SOLNI” value with SOLNI stood at 8. Also, the “assessed score … SETFA” value in the assay on SETFA was 6. In addition, the “assessed score … AMARE” value in the assay with AMARE is recorded as 7.

On to `O=S1(=O)Cc2nccnc2C(O)=C1c1cc(C(F)(F)F)ccc1C(F)(F)F` [Compound C16], for which the “assessed score … ECHCG” value with ECHCG turned out to be 5. In addition, the “assessed score … IPOHE” value in the assay on IPOHE is recorded as 7. For the same molecule, in the assay on SOLNI, the “assessed score … SOLNI” value is on record as 10. For the same molecule, the “assessed score … SETFA” value in the assay with SETFA was 3. In addition, in the assay with AMARE, the “assessed score … AMARE” value is 9.

`O=S1(=O)Cc2nccnc2C(O)=C1c1ccc(Cl)cc1C(F)(F)F` [Compound C17]: the “assessed score … ECHCG” value in the assay with ECHCG stood at 8. Also, the “assessed score … IPOHE” value in the assay with IPOHE came out at 7. For the same molecule, in the assay on SOLNI, the “assessed score … SOLNI” value is 10. The “assessed score … SETFA” value in the assay on SETFA stood at 8. Also, the “assessed score … AMARE” value in the assay on AMARE came out at 10.

As for `O=S1(=O)Cc2nccnc2C(O)=C1c1c(Cl)ccc(Cl)c1Cl` [Compound C18], the “assessed score … ECHCG” value in the assay on ECHCG was determined as 8. Moreover, the “assessed score … IPOHE” value with IPOHE is reported as 8. In the assay on SOLNI, the “assessed score … SOLNI” value worked out at 8. Moreover, the “assessed score … SETFA” value in the assay on SETFA was determined as 8. In addition, in the assay with AMARE, the “assessed score … AMARE” value turned out to be 7.

For the molecule `O=S1(=O)Cc2nccnc2C(O)=C1c1c(Cl)cccc1Cl` [Compound C19], the “assessed score … ECHCG” value with ECHCG is 7. For the same molecule, the “assessed score … IPOHE” value in the assay on IPOHE turned out to be 8. Besides, the “assessed score … SOLNI” value in the assay with SOLNI was determined as 9. In the assay with SETFA, the “assessed score … SETFA” value was 8. Besides, in the assay with AMARE, the “assessed score … AMARE” value came to 7.
